# US10047083B2, “Dihydropyrimidinoisoquinolinones and pharmaceutical compositions thereof for the treatment of inflammatory disorders” (GALAPAGOS NV, priority 2011, dated 2018)
# Experiments:
# [1] = target: T1, GPR84 (Homo sapiens, UniProt Q9NQS5); assay: GTPγS binding assay (GPR84); format: biochemical; details: membranes from stable cell line over expressing GPR84; 3,3′ di indolylmethane at EC80
# T1 construct: expressed in transfected cells; membranes used
# Method in brief: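 Membranes (20 μg/well) from a stable GPR84-overexpressing line, pre-incubated with 0.1 μM GDP for 15 min at 4° C, mixed with 0.1 nM [35S]GTPγS and WGA SpA beads in 20 mM HEPES pH 7.4, 5 mM MgCl2, 250 mM NaCl, 0.05% BSA, 75 ug/mL saponin; 90 min at room temperature, then scintillation counting.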
# [2] = tested on: human neutrophils; assay: Human neutrophil migration assay (embelin-induced); format: cell-based; details: neutrophils from human buffy coat, 30 min compound pre-incubation, migration towards embelin at EC80 for 1 h, ATPlite readout, read-out: human neutrophil migration inhibition (Neutrophils)
# Experimental: 2. Cellular Assays 2.1. Human Neutrophil Migration Assay
# The effect of agonists or antagonists for GPR84 can therefore be assayed in a neutrophil migration test. In the neutrophil migration assay, neutrophils, freshly isolated from buffy coats from human volunteers, are treated with a compound for 30 minutes. Subsequently, the neutrophils are transferred to the upper wells of a Corning HTS transwell 96 permeable support system, of which the lower wells are filled with a embelin solution at EC80 (concentration which gives 80% of the activity of GPR84). After 1 h of incubation, migration of the neutrophils towards embelin in the lower compartment can be quantified by measuring the ATP-content of the lower wells using the ATPlite luminescence ATP detection assay system (Perkin Elmer, Cat. No.: 436110).
# A human buffy coat is diluted with an equal volume of ice cold DPBS. 20 mL of the diluted buffy coat is gently mixed with 4 mL of ACD buffer (140 mM citric acid, 200 mM sodium citrate and 220 mM dextrose). Then, 12 mL of the 6% dextran/0.9% NaCl solution (15 g dextran T2000 and 2.25 g NaCl dissolved in 250 mL H2O) is added to the mixture and the samples are inverted gently up to 20 times. The total volume was transferred to a new recipient and incubated at room temperature for 1 h for complete separation of the two phases to occur. The yellowish supernatant is then transferred to a clean centrifugation tube and centrifuged for 12 minutes at 1300 rpm and 4° C. After centrifugation, the supernatant is discarded and the remaining cell pellet is rapidly resuspended in 12 mL of ice-cold H2O for red blood cell lysis to occur. After 20 seconds, 4 mL of ice-cold 0.6 M KCl is added. Samples are mixed carefully and centrifuged for 6 minutes at 1300 rpm, 4° C. The supernatant is discarded and the red blood cell lysis procedure is repeated one more time. Subsequently, the cell pellet is resuspended in 4 mL of DPBS and layered over 5 mL of Lymphoprep (Nycomed Pharma, Cat. No.: 1114545) in a 15 mL centrifuge tube. After centrifugation for 12 min at 1300 rpm, 4° C., the supernatant is removed and the cell pellet, containing the neutrophils, is resuspended in 25 mL chemotaxis buffer (RPMI 1640 medium, supplemented with 10 mM HEPES; freshly made for each experiment)
# A cell suspension of 8.9×10^6 cells per milliliter is prepared. 20 μL of compound solution in chemotaxis buffer is added to 180 μL cell suspension. The mixture is incubated at 37° C. for 30 minutes with intermediate resuspension of the cells after 15 minutes. Following this, 70 μL cell suspension is transferred to the upper compartment of a Corning HTS transwell 96 permeable support system with 5.0 μm pore size polycarbonate membrane (Corning, Cat. No.: 3387). The receiver well of the transwell system is then filled with 200 μL chemotaxis buffer containing compound and chemotactic agent (embelin). After incubation at 37° C. in 5% CO2 for 1 h, the upper plate of the transwell system is removed and the cell suspension in the receiver plate is transferred to a 96-well V-bottom plate. 50 μL of DPBS is added to the receiver plate to prevent remaining cells from drying out. The V-bottom plate is centrifuged for 6 minutes at 1500 rpm. The supernatant is removed and the cells are resuspended in 50 μL DPBS. The cells are then transferred back to the receiver plate of the transwell system. After this, 100 μL ATPlite solution (Perkin Elmer, Cat. No: 436110) was added to the cells. The plate is incubated for 10 minutes in the dark, while shaking. […] of cell lysate is then transferred to a white 96-well plate and luminescence is measured. The detected luminescent signal is considered as linearely related to the number of cells having migrated from the upper well to the receiver well.
# T1 sequence (Q9NQS5 whole entry): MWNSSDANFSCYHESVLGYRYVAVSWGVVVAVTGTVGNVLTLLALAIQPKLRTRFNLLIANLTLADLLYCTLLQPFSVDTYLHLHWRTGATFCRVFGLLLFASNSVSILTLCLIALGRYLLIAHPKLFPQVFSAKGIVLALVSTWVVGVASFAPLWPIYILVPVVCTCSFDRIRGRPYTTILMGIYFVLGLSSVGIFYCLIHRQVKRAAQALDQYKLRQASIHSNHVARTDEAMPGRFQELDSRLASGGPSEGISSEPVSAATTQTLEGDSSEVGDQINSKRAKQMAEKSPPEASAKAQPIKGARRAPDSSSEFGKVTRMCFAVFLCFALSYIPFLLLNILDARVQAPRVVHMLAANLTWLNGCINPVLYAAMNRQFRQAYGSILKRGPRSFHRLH
IC50 [1] [nM],IC50 [2] [nM],SMILES
101 to 500,0.01 to 100,"CCC(O)C#Cc1ccc2c(c1)CCn1c-2cc(OCC2COCCO2)nc1=O (stereo not drawn) [Compound 89, 2-([1,4]dioxan-2-ylmethoxy)-9-(3-hydroxy-pent-1-ynyl)-6,7-dihydro-pyrimido[6,1-a]isoquinolin-4-one]"
0.01 to 100,0.01 to 100,"CC(C)OCCOc1ccc2c(c1)CCn1c-2cc(OC[C@@H]2COCCO2)nc1=O [Compound 171, 2-((S)-1-[1,4]Dioxan-2-ylmethoxy)-9-(2-isopropoxy-ethoxy)-6,7-dihydro-pyrimido[6,1-a]isoquinolin-4-one]"
0.01 to 100,0.01 to 100,"CCC(C)(C)CNc1ccc2c(c1)CCn1c-2cc(OC[C@@H]2COCCO2)nc1=O [Compound 126, 9-(2,2-dimethyl-butylamino)-2-((S)-1-[1,4]dioxan-2-ylmethoxy)-6,7-dihydro-pyrimido[6,1-a]isoquinolin-4-one]"
0.01 to 100,0.01 to 100,"CC(C)C#Cc1ccc2c(c1)CCn1c-2cc(OC[C@@H]2COCCO2)nc1=O [Compound 112, 2-((S)-1-[1,4]dioxan-2-ylmethoxy)-9-(3-methyl-but-1-ynyl)-6,7-dihydro-pyrimido[6,1-a]isoquinolin-4-one]"
101 to 500,0.01 to 100,"COCCCc1ccc2c(c1)CCn1c-2cc(OC[C@H]2COCCO2)nc1=O [Compound 168, 2-((R)-1-[1,4]Dioxan-2-ylmethoxy)-9-(3-methoxy-propyl)-6,7-dihydro-pyrimido[6,1-a]isoquinolin-4-one]"
101 to 500,0.01 to 100,"CC(O)CCc1ccc2c(c1)CCn1c-2cc(OC[C@@H]2COCCO2)nc1=O (stereo partly drawn) [Compound 140, 2-((S)-1-[1,4]dioxan-2-ylmethoxy)-9-(3-hydroxy-butyl)-6,7-dihydro-pyrimido[6,1-a]isoquinolin-4-one]"
0.01 to 100,0.01 to 100,"COCCCCc1ccc2c(c1)CCn1c-2cc(OC[C@@H]2COCCO2)nc1=O [Compound 174, 2-((S)-1-[1,4]Dioxan-2-ylmethoxy)-9-(4-methoxy-butyl)-6,7-dihydro-pyrimido[6,1-a]isoquinolin-4-one]"
0.01 to 100,0.01 to 100,"O=c1nc(OCC2COCCO2)cc2n1CCc1cc(CCCNc3ccccc3)ccc1-2 (stereo in doubt) [Compound 149, 2-((S)-1-[1,4]dioxan-2-ylmethoxy)-9-(3-phenylamino-propyl)-6,7-dihydro-pyrimido[6,1-a]isoquinolin-4-one]"
0.01 to 100,0.01 to 100,"CC(C)C#Cc1ccc2c(c1)CCn1c-2cc(OCC2COCCO2)nc1=O (stereo not drawn) [Compound 83, 2-([1,4]dioxan-2-ylmethoxy)-9-(3-methyl-but-1-ynyl)-6,7-dihydro-pyrimido[6,1-a]isoquinolin-4-one]"
0.01 to 100,0.01 to 100,"O=c1nc(OC[C@H]2COCCO2)cc2n1CCc1cc(CCC3CC3)ccc1-2 [Compound 114, 9-(2-cyclopropyl-ethyl)-2-((R)-1-[1,4]dioxan-2-ylmethoxy)-6,7-dihydro-pyrimido[6,1-a]isoquinolin-4-one]"
0.01 to 100,0.01 to 100,"O=c1nc(OC[C@@H]2COCCO2)cc2n1CCc1cc(OCC3CCOCC3)ccc1-2 [Compound 159, 2-((S)-1-[1,4]dioxan-2-ylmethoxy)-9-(tetrahydro-pyran-4-ylmethoxy)-6,7-dihydro-pyrimido[6,1-a]isoquinolin-4-one]"
101 to 500,101 to 500,"CC(C)(O)CCCc1ccc2c(c1)CCn1c-2cc(OC[C@@H]2COCCO2)nc1=O [Compound 160, 2-((S)-1-[1,4]dioxan-2-ylmethoxy)-9-(4-hydroxy-4-methyl-pentyl)-6,7-dihydro-pyrimido[6,1-a]isoquinolin-4-one]"
–,101 to 500,"COc1ccccc1-c1ccc2c(c1)CCn1c-2cc(OCC2COCCO2)nc1=O (stereo not drawn) [Compound 23, 2-([1,4]dioxan-2-ylmethoxy)-9-(2-methoxy-phenyl)-6,7-dihydro-pyrimido[6,1-a]isoquinolin-4-one]"
–,0.01 to 100,"O=c1nc(OCC2COCCO2)cc2n1CCc1cc(C#CC3CC3)ccc1-2 (stereo not drawn) [Compound 30, 9-cyclopropylethynyl-2-([1,4]dioxan-2-ylmethoxy)-6,7-dihydro-pyrimido[6,1-a]isoquinolin-4-one]"

# Continued, compound first:
SMILES,IC50 [1] [nM],IC50 [2] [nM]
"O=c1nc(OCC2COCCO2)cc2n1CCc1cc(OCc3ccccn3)ccc1-2 (stereo not drawn) [Compound 9, 2-([1,4]dioxan-2-ylmethoxy)-9-(pyridin-2-ylmethoxy)-6,7-dihydro-pyrimido[6,1-a]isoquinolin-4-one]",0.01 to 100,0.01 to 100
"O=c1nc(OC[C@@H]2COCCO2)cc2n1CCc1cc(OCC3CCCCO3)ccc1-2 (stereo partly drawn) [Compound 139, 2-((S)-1-[1,4]dioxan-2-ylmethoxy)-9-(tetrahydro-pyran-2-ylmethoxy)-6,7-dihydro-pyrimido[6,1-a]isoquinolin-4-one]",0.01 to 100,0.01 to 100
"COc1cccc(-c2ccc3c(c2)CCn2c-3cc(OCC3COCCO3)nc2=O)c1OC (stereo not drawn) [Compound 63, 9-(2,3-dimethoxy-phenyl)-2-([1,4]dioxan-2-ylmethoxy)-6,7-dihydro-pyrimido[6,1-a]isoquinolin-4-one]",101 to 500,0.01 to 100
"O=c1nc(OCC2COCCO2)cc2n1CCc1cc(OCc3noc(C4CC4)n3)ccc1-2 (stereo not drawn) [Compound 77, 9-(5-cyclopropyl-[1,2,4]oxadiazol-3-ylmethoxy)-2-([1,4]dioxan-2-ylmethoxy)-6,7-dihydro-pyrimido[6,1-a]isoquinolin-4-one]",0.01 to 100,0.01 to 100
"CC(C)(C)OCc1ccc2c(c1)CCn1c-2cc(OCC2COCCO2)nc1=O (stereo not drawn) [Compound 72, 9-tert-butoxymethyl-2-([1,4]dioxan-2-ylmethoxy)-6,7-dihydro-pyrimido[6,1-a]isoquinolin-4-one]",0.01 to 100,0.01 to 100
"O=c1nc(OCC2COCCO2)cc2n1CCc1cc(-c3ccc(N4CCCCC4)nc3)ccc1-2 (stereo not drawn) [Compound 68, 2-([1,4]dioxan-2-ylmethoxy)-9-(3,4,5,6-tetrahydro-2H-[1,2′]bipyridinyl-5′-yl)-6,7-dihydro-pyrimido[6,1-a]isoquinolin-4-one]",0.01 to 100,0.01 to 100
"CC(C)(C)c1nc(COc2ccc3c(c2)CCn2c-3cc(OCC3COCCO3)nc2=O)no1 (stereo not drawn) [Compound 17, 9-(5-tert-butyl-[1,2,4]oxadiazol-3-ylmethoxy)-2-([1,4]dioxan-2-ylmethoxy)-6,7-dihydro-pyrimido[6,1-a]isoquinolin-4-one]",–,0.01 to 100
"O=c1nc(OCC2COCCO2)cc2n1CCc1cc(-c3ccc4[nH]ccc4c3)ccc1-2 (stereo not drawn) [Compound 22, 2-([1,4]dioxan-2-ylmethoxy)-9-(1H-indol-5-yl)-6,7-dihydro-pyrimido[6,1-a]isoquinolin-4-one]",–,0.01 to 100
"CC(O)(C#Cc1ccc2c(c1)CCn1c-2cc(OCC2COCCO2)nc1=O)c1ccccc1 (stereo not drawn) [Compound 92, 2-([1,4]dioxan-2-ylmethoxy)-9-(3-hydroxy-3-phenyl-but-1-ynyl)-6,7-dihydro-pyrimido[6,1-a]isoquinolin-4-one]",–,0.01 to 100
"Cn1ccc2cc(-c3ccc4c(c3)CCn3c-4cc(OCC4COCCO4)nc3=O)ccc21 (stereo not drawn) [Compound 34, 2-([1,4]dioxan-2-ylmethoxy)-9-(1-methyl-1H-indol-5-yl)-6,7-dihydro-pyrimido[6,1-a]isoquinolin-4-one]",–,0.01 to 100
